The numbers were not newly measured in patent US8158147B2, “Modified release formulations of at least one form of tramadol” (priority 2002, dated 2012), which cites them from elsewhere.

Read-outs that look alike come from different tables or passages of the source.

In data set [1] the test system is osteoarthritis. The settings on record: Study No. 058; 6 weeks; rofecoxib 12.5 mg, Nabumetone 1500 mg.
Data set [2] concerns osteoarthritis. The settings on record: 12 weeks, celecoxib 100 mg BID, Naproxen 500 mg BID.

As for `COc1ccc2cc(CCC(C)=O)ccc2c1` [Nabumetone], the “WOMAC pain walking on a flat surface, mean difference vs placebo” value in the data set with osteoarthritis [1] is 10 mm.

Turning to `COc1ccc2cc([C@H](C)C(=O)O)ccc2c1` [Naproxen], the entries for the “LS mean difference in pain VAS change from baseline vs placebo” value with osteoarthritis [2] (Study No. 020) and with osteoarthritis [2] (Study No. 054) were 7.6 mm and 11.2 mm, respectively.

Regarding `CS(=O)(=O)c1ccc(C2=C(c3ccccc3)C(=O)OC2)cc1` [rofecoxib, Rofecoxib], the “WOMAC pain walking on a flat surface, mean difference vs placebo” value in the data set with osteoarthritis [1] is 9.0 mm.
